Entries after “also recorded” stand apart in the source; their conditions may differ.
Experiments:
[1] = molecular target: T1, HMG-CoA reductase (Homo sapiens, UniProt P04035); assay: HMG-CoA reductase activity assay; assay type: biochemical; conditions: compound 13 at 50 nM and 100 nM
T1 construct: purchased Sigma-Aldrich CS1090
T1 sequence (P04035 426-888 limits assumed): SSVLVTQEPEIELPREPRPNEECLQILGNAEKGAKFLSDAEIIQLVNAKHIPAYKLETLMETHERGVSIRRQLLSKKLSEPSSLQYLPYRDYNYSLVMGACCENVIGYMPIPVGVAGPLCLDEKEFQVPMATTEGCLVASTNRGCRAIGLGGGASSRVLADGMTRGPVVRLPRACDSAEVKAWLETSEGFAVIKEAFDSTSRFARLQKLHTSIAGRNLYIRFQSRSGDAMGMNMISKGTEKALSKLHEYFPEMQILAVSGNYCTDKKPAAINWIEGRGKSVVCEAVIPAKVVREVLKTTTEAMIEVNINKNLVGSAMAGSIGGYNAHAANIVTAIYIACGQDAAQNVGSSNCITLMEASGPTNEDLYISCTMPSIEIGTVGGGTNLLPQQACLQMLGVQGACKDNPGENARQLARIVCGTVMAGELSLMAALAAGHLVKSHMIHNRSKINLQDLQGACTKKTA
Excerpt: Enzyme activity was quantified using a commercially available Assay Kit (CS1090 HMG-CoA Reductase Kit, Sigma-Aldrich, St. Louis, Mo.)

[2] = test system: LDLR−/− mice; assay: Vascular calcification in LDLR−/− mice on high fat diet (Osteosense, Alizarin red); assay type: in vivo; conditions: high fat diet 20 weeks, 2.5 mg/kg ip daily, vs vehicle
Protocol: Fluorescence reflectance imaging (FRI), was performed as previously described. (Aikawa, E., et al. Osteogenesis associates with inflammation in early-stage atherosclerosis evaluated by molecular imaging in vivo. Circulation 116, 2841-2850 (2007); and Aikawa, E., et al. Multimodality molecular imaging identifies proteolytic and osteogenic activities in early aortic valve disease. Circulation 115, 377-386 (2007).) Animals received 150 μl of OsteoSense 680 and 150 μl of ProSense 750 via tail vein injection 24 hours before euthanasia. After dissection, aortae were subjected to ex vivo near infrared fluorescence reflectance imaging using an Odyssey Imaging System (LI-COR Biotechnology, Lincoln, Nebr.), with integrated signal intensities determined for regions of interest using software version 3.0.16.
Aortas were either immediately embedded and cryopreserved using optimal cutting-temperature medium (Sakura Tissue-Tek, Zoeterwoude, The Netherlands) or fixed in paraformaldehyde and embedded in parafin. The presence of calcification was determined by staining tissue sections with Alizarin red or Von Kossa. Lipid accumulation in tissue sections was visualized by staining with Oil Red O. Liver sections were prepared from paraformaldehyde-fixed tissue and stained with hematoxylin and eosin. […]

[3] = test system: HepG2 cells; assay: ApoB-100 secretion in HepG2 cells (ELISA); assay type: cell-based, human; conditions: compound 13 100 nM, atorvastatin 1 nM, ALK3-Fc 400 ng/mL
Protocol: (§1) Hepatoma G2 (HepG2) cells and human aortic endothelial cells (HAECs) were purchased from the American type culture collection (Manassas, Va.). HepG2 cells were maintained in Eagle's Minimum Essential Medium (EMEM) supplemented with 10% fetal bovine serum, 100 units/ml of penicillin, 0.1 mg/ml of streptomycin and glutamine. HAECs were cultured in endothelial cell basal medium (EBM 2) supplemented with the EBM2 bullet kit (Lonza, Basel, Switzerland). For experiments, cells were seeded into 6 or 12-well plates (BD Falcon, Franklin Lakes, N.J.) at a concentration of 0.5×10^6 cells per 5 mL of media. HAECs were maintained in EBM 2 with 0.1% FBS without additional growth factors for all experiments. HepG2 cells were grown to 70% confluence before they were incubated in EMEM enriched with 0.1% FBS. ApoB-100 measurements were performed in supernatants from HepG2 that had been incubated in EMEM containing 0.5% bovine serum albumin using a commercially available Human ApoB-100 ELISA kit (Mabtech AB, Nacka Strand, Sweden). BMP2 protein measurements were performed in supernatants from HAECs that had been incubated in EBM2 containing 0.1% FBS using a BMP2 ELISA kit (R&D Systems).

[4] = Body weight, food intake and bone mineral density in LDLR−/− mice; assay type: in vivo; conditions: 2.5 mg/kg ip daily, vs vehicle
[5] = test system: human aortic endothelial cells; assay: Reactive oxygen species in human aortic endothelial cells; assay type: cell-based; conditions: HAECs, compound 13 100 nM, ALK3-Fc 500 ng/mL
Protocol: Cells plated in a 96-well format were pre-treated with compound 13, ALK3-Fc, or vehicle for 30 min followed by treatment with oxidized LDL, BMP2, or vehicle for 20 hours after starvation for six hours. H2O2 production with chloromethyl 2′,7′-dichlorodihydrofluorescein diacetate (DCF, 2 μM) and NADPH oxidase activity with lucigenin were measured as previously described. (Ichinose, F., et al. Cardiomyocyte-specific overexpression of nitric oxide synthase 3 prevents myocardial dysfunction in murine models of septic shock. Circ Res 100, 130-139 (2007); Sorescu, G. P., et al. Bone morphogenic protein 4 produced in endothelial cells by oscillatory shear stress induces monocyte adhesion by stimulating reactive oxygen species production from a nox1-based NADPH oxidase. Circ Res 95, 773-779 (2004); and Abid, M. R., Spokes, K. C., Shih, S. C. & Aird, W. C. NADPH oxidase activity selectively modulates vascular endothelial growth factor signaling pathways. J Biol Chem 282, 35373-35385 (2007).)
as §1, with “BMP2 protein measurements were performed in supernatants from HAECs that had been incubated in EBM2 containing 0.1% FBS using a BMP2 ELISA kit (R&D Systems).” left out

**Q.** Which results are given for `c1ccc2c(-c3cnn4cc(-c5ccc(N6CCNCC6)cc5)cnc34)ccnc2c1` [Compound 13, 4-[6-(4-piperazin-1-ylphenyl)pyrazolo[1,5-a]pyrimidin-3-yl]quinoline]?
**A.** HMG-CoA reductase enzyme activity in vitro [1]: did not inhibit; also recorded: lack of impact; vascular calcification / osteogenic activity (fluor-labeled bisphosphonate uptake, Alizarin red) [2]: significantly less abundant; also recorded: reduced vascular calcification throughout the aortae; also recorded: severely diminished evidence of osteogenesis; vascular calcification / osteogenic activity (fluor-labeled bisphosphonate uptake, Alizarin red) ([2]; listed as BMP inhibitor positive control compound): can reduce vascular calcification; BMP2-induced ApoB-100 secretion ([3]; BMP2 100 ng/mL): blocked; also recorded: prevented the BMP2-mediated induction of ApoB-100 secretion; basal ApoB-100 secretion (absence of BMP2) [3]: reduced basal apolipoprotein B100 (ApoB-100) secretion; also recorded: inhibited ApoB-100 production; food intake per gram body weight ([4]; 6 weeks high fat diet, 2.5 mg/kg): did not differ significantly; also recorded: not associated with a reduction in body weight or food intake; body weight ([4]; 20 weeks high fat diet, 2.5 mg/kg): did not differ significantly; also recorded: not associated with a reduction in body weight or food intake; bone mineral density (femur, dual energy X-ray absorptiometry) ([4]; HFD 20 weeks): did not differ; BMP2-induced generation of reactive oxygen species (DCF fluorescence) ([5]; BMP2 20 ng/mL): compound 13- and ALK3-Fc-sensitive manner; oxLDL-induced generation of reactive oxygen species (DCF fluorescence) ([5]; oxLDL 80 μg/mL): could inhibit oxLDL-induced ROS production; oxLDL-induced generation of reactive oxygen species (lucigenin fluorescence) [5]: could be blocked

Reference: patent publication US20140038953A1, “COMPOSITIONS AND METHODS FOR CARDIOVASCULAR DISEASE” (THE GENERAL HOSPITAL CORPORATION, priority 2011, published 2014)
